Measured values reported in patent publication US10987317B2, “Inhibition of glutaminase C” (Cornell University, priority 2009, dated 2021).
Entries after “also recorded” stand apart in the source; their conditions may differ.

Tests used:
[1] = tested on: NIH 3T3 cells transfected with oncogenic Dbl; assay: Dbl-induced cellular transformation (focus-forming assays, growth in low serum, soft agar); assay type: cell-based; conditions: focus formation / growth in low serum
Description: FIGS. 1A-E illustrate that the small molecule 968 inhibiting cellular transformation. […] Cells were fixed and stained with crystal violet for counting of foci. Right: 968 was serially diluted (10, 5, 2.5, and 1.25 μM) and evaluated for its ability to inhibit focus formation. […] After 6 days, the cells are counted. 100% represents the number of Dbl-transformed cells counted in the absence of 968 (27.5×10^4 cells). Data represent the average of 3 experiments (±s.d.). […] At the indicated times, the cells are counted. Data represent the average of 3 experiments (±s.d.).
FIGS. 2A-G illustrate effects of 968 on the transforming activity of constitutively active Rho GTPases and human breast cancer cells. […] Cells are scored after 14 days and plotted as the percentage of the total number of colonies greater than […] in diameter. Data represent the average of 3 experiments (±s.d.). […] Data represent the average of 3 experiments (±s.d.). […] Data represent the average of 3 experiments (±s.d.). […] After 24 hours at 37° C. the migratory cells are fixed, stained with GIEMSA, and counted. Data represent the average of 3 experiments (±s.d.). […] Data represent the average of 3 experiments (±s.d.). […] Data represent the average of 3 experiments (±s.d.). […] Data represent the average of 3 experiments (±s.d.).
FIGS. 5A-C illustrate comparative abilities of 968 and other benzo[a]phenanthrldinones to inhibit the transforming activity of oncogenic Dbl and H-Ras. […] Histograms show the relative levels of Dbl-induced focus formation for the different treatments, compared to Dbl-induced focus formation measured in the presence of DMSO (i.e. solvent control). Data represent the average of 3 experiments (mean±s.d.). […] Histograms show the relative levels of Ras(G12V)-induced focus formation measured for the different treatments, compared to Ras(G12V)-induced focus formation measured in the presence of DMSO (solvent control). Data represent the average of 3 experiments (mean±s.d.). FIG. 5C NIH 3T3 cells stably expressing H-Ras(G12V) that are cultured in DMEM supplemented with 1% calf serum, with the indicated amounts of 968. After 6 days, cells are trypsinized and counted. 100% represents the number of cells counted in the absence of 968, i.e. 26×10^4 cells. Data represent the average of 3 experiments (mean±s.d.).

[2] = target: T1, E. coli-expressed mouse ortholog of human GAC (Mus musculus, UniProt D3Z7P3); assay: Recombinant glutaminase activity assay; assay type: biochemical
T1 construct: A plasmid encoding mouse GAC (residues 128-603) was cloned into the pET28a vector; His-tag (N, cleaved yes); made in house; host or cells: E. coli (pET28a)
T1 sequence (D3Z7P3 128-603 isoform D3Z7P3-2): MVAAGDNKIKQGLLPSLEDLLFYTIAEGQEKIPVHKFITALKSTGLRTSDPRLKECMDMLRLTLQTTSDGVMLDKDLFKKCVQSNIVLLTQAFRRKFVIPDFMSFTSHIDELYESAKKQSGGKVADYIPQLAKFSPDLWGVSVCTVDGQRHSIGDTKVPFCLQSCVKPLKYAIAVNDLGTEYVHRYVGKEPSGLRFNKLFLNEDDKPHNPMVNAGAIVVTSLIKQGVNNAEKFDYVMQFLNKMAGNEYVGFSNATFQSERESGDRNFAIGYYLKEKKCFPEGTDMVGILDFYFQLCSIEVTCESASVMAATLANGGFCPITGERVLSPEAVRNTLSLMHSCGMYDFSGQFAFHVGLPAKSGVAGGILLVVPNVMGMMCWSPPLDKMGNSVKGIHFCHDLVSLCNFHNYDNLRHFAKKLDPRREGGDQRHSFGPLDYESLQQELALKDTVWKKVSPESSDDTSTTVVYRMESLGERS
Description: (§1) 100%=620 moles of glutamine hydrolyzed per minute per mole of enzyme. Data represent the average of 3 experiments (±s.d.). […] Following precipitation of the beads and re-suspension, the samples are analyzed by Western blotting with anti-V5 antibody. […] Data represent the average of 3 experiments (±s.d.). […] Data represent the average of 3 experiments (±s.d.). […] Data represent the average of 3 experiments (±s.d.). FIG. 3E NIH 3T3 cells transiently expressing Dbl are assayed for focus formation in the presence of 10 μM 968 alone or together with […] dimethyl α-ketoglutarate. […] 100%=680 nM glutamine hydrolyzed per minute per 10^5 cells. Data are the average of 3 experiments (=s.d.). […] 100%=750 nM glutamine hydrolyzed per minute per 10^5 cells. Data represent the average of 3 experiments (±s.d.).
The activity of the E. coli-expressed recombinant mouse ortholog of human GAC are assayed in the presence of 0 (●), 10 (∇) or 20 (▪) μM 968 and inorganic phosphate in the form of dipotassium hydrogen phosphate. […] The data are plotted as GA activity as function of varying concentrations of glutamine or inorganic phosphate. The data are the average of 3 experiments and are plotted as mean±SEM.
Glutaminase activity assays were performed on recombinant enzyme as previously described (Kenny et al., “Bacterial Expression, Purification and Characterization of Rat Kidney-Type Mitochondrial Glutaminasc,” Protein Expr. Purif 31:140-148 (2003), which is hereby incorporated by reference in its entirety). A plasmid encoding mouse GAC (residues 128-603) was cloned into the pET28a vector and the protein was expressed with an N-terminal histidine (His)-tag. The tag was cleaved using thrombin and the protein was further purified by anion-exchange and gel-filtration chromatography. […] The reaction mixture was incubated at room temperature for 45 minutes and the absorbance at 340 nm was recorded for each sample against a water blank. The absorbance of the sample with just the cocktail mixture was subtracted from each reading to calculate the activity of the enzyme.

[3] = tested on: GA activity in SKBR3 cells; assay: GA activity in mitochondrial fractions; assay type: cell-based, human; conditions: 2 μM
Description: as §1
(§2) FIGS. 4A-E illustrate the role of glutaminase C activity in cellular transformation. […] Data represent the average of 3 experiments (±s.d.). […] Data represent the average of 3 experiments (±s.d.). […] 100% represents the activity measured in untreated Dbl-transformed cells. The data represent the average of 2 experiments. […] 100% represents the activity measured in untreated SKBR3 cells. The data represent the average of 2 experiments. […] Data represent the average of 3 experiments (±s.d.).
FIGS. 11A-E illustrate the effects of different treatments on GA activity. […] The addition of Pi stimulated the GA activity in control 3T3 cells, Dbl-expressing cells, and Cdc42(F28L)-expressing cells by ˜6-fold, 2-fold, and 3-fold, respectively. 100% represents the Pi-stimulated activity measured for Dbl-transformed cells that are not treated with 968. Data is the average of 3 experiments (±s.d.). […] The addition of Pi stimulated the GA activity of HMECs, MDA-MB231 cells, and SKBR3 cells by ˜5-fold, 2-fold, and 1.4-fold, respectively. […] The data are plotted as the percentage of GA activity measured for untreated SKBR3 cells and represent the average of 2 experiments. […] 100% represents the P1-stimulated activity measured for untreateDbl-transformed cells. […]

[4] = tested on: GA activity in Dbl- and Cdc42(F28L)-expressing NIH 3T3 cells; assay: GA activity in mitochondrial fractions of transformed fibroblasts; assay type: cell-based; conditions: Dbl-transformed cells, 2 μM
Description: as §1, §2
FIGS. 11A-E illustrate the effects of different treatments on GA activity. […] The addition of Pi stimulated the GA activity in control 3T3 cells, Dbl-expressing cells, and Cdc42(F28L)-expressing cells by ˜6-fold, 2-fold, and 3-fold, respectively. 100% represents the Pi-stimulated activity measured for Dbl-transformed cells that are not treated with 968. Data is the average of 3 experiments (±s.d.). […] The addition of Pi stimulated the GA activity of HMECs, MDA-MB231 cells, and SKBR3 cells by ˜5-fold, 2-fold, and 1.4-fold, respectively. 100% represents the Pi-stimulated activity for SKBR3 cells that were not treated with 968. Data are the average of 3 experiments (±s.d.). […] Mitochondrial fractions are prepared from equal numbers of cells and assayed for GA activity in the presence or absence of 133 mM Pi. The data are plotted as the percentage of GA activity measured for untreated SKBR3 cells and represent the average of 2 experiments. […] 100% represents the P1-stimulated activity measured for untreateDbl-transformed cells. The data represent the average of 2 experiments. […] 100% represents the Pi-stimulated activity for untreated SKBR3 cells. The data represent the average of 2 experiments.
Mitochondrial preparations were obtained using the mitochondria isolation kit from QIAGEN (Cat #37612). A suspension containing 2×10^7 cells was transferred into a 50 ml conical tube and centrifuged at 500×g for 10 minutes at 4° C. […]

[5] = target: T2, V5-tagged GAC from Dbl-transformed NIH 3T3 cells (Mus musculus, UniProt D3Z7P3); assay: GA activity of immunoprecipitated V5-GAC; assay type: cell-based; conditions: GAC isolated from Dbl cells, dephosphorylation conditions
T2 construct: expressed in transfected cells; host or cells: NIH 3T3 cells stably expressing oncogenic Dbl
T2 sequence (D3Z7P3 55-603 isoform D3Z7P3-2 limits assumed): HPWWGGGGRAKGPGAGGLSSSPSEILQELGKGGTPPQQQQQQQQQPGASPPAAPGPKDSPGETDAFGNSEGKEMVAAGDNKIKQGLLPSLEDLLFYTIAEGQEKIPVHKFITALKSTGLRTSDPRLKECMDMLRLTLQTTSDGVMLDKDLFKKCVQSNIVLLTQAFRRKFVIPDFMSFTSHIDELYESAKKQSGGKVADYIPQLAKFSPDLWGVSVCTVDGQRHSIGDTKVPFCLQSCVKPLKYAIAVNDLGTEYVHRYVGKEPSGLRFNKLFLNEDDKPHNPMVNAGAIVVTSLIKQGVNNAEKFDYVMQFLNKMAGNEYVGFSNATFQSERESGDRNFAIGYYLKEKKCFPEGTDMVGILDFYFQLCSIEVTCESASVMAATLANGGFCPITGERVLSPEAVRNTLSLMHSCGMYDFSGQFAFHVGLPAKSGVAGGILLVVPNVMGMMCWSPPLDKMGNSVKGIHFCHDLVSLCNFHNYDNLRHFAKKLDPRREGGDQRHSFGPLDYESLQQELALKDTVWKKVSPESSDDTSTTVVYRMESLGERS
Text: as §2
NIH 3T3 cells or NIH 3T3 cells stably expressing the Dbl oncogene, were transiently transfected with DNA encoding a V5-tagged GAC. The cells were then harvested and the ectopically expressed GAC was isolated by immunoprecipitation via the V5 tag. The VS-GAC obtained from one of the Dbl samples was additionally treated with alkaline phosphtase under dephosphorylation conditions. The samples were then assayed for glutaminase activity in the absence of phosphate (top panel) and the relative expression levels of VS-GAC was determined by Western blotting using an anit-V5 antibody (bottom panel).
NIH 3T3 cells stably expressing oncogenic Dbl were transiently transfected with DNA encoding VS-tagged GAC, and cells were treated with either 968 or BA-968 ([…]) as indicated for 48 hours. The cells were then harvested and the ectopically expressed GAC was isolated by immunoprecipitation via the V5 tag. The samples were then assayed for glutaminase activity in the absence of phosphate (top panel) and the relative expression levels of VS-GAC was determined by Western blotting using an anti-V5 antibody (bottom panel).

CC1(C)CC(=O)C2=C(C1)c1c(ccc3ccccc13)NC2c1cccc(Br)c1 (centres unmarked) [Compound 335]
inhibition of Dbl-induced transformation [1]: little or no inhibition; also recorded: less effective | inhibition of enzymatic activity of purified GAC [2]: little ability to inhibit enzyme activity

CN(C)c1ccc(C2Nc3ccc4ccccc4c3C3=C2C(=O)CC(C)(C)C3)cc1 (centres unmarked) [Compound 384]
inhibition of Dbl-induced transformation [1]: little or no inhibition

Cc1ccc(S(=O)(=O)/C=C/C#N)cc1 [BAY 11-7082, reference compound]
basal GA activity [3]: significantly reduces | direct stimulation of the enzyme by phosphate [3]: little or no effect | direct stimulation of the enzyme by phosphate [4]: little or no effect | basal GA activity ([4]; 2 days): significantly reduces

alkaline phosphatase [reference compound]
reduction of basal glutaminase (phosphate independent) activity [5]: 75%
